# Data: publication PMC11212140, “Molecular Bidents with Two Electrophilic Warheads as a New Pharmacological Modality” (ACS Central Science, 2024)
# Legend:
# Assay in all cases: KiNativ profiling in H3255 cells
# Assay type in all cases: cell-based, human
# [1] = tested on: AMPKa1, AMPKa2; conditions: 2.5 µM
# Experimental: (§1) treatment. Cell viability was determined by using CellTiter-Glo (Promega #G7571) according to the manufacturer’s instructions, measuring luminescence using an Envision plate-reader (PerkinElmer Inc.). Dose-response curves were generated using non-linear regression curve fit in GraphPad Prism 9.2.0(GraphPad Software).
# (§2) Cellular target engagement assays
# (§3) After 6 hours treatment, cells were pelleted, washed with PBS once and lysed with IP lysis buffer (25mMTris-HCl pH 7.4, 150mM NaCl, 1 mM EDTA, 1% NP-40 and 5% glycerol) (Thermo Fisher Scientific, Cat#87788) containing protease/phosphatase inhibitor cocktail (Roche). The protein concentrations were measured by BCA analysis (Pierce). Cell lysates were incubated with 1 μM of biotin conjugated probe (bio-Osimertinib or bio-ZNL-0013) at 4 ℃ overnight, and incubated for 3 more hours at room temperature. Lysates with probe were then incubated with streptavidin beads (Thermo Fisher, #20349) for 2 hours at 4 ℃. The protein-probe complexes on the beads were then subjected to immunoblotting.
# (§4) H3255 cells were plated with 6.5x10^6 per condition in fresh media in 15 cm plates and treated the 80% confluency for 2 hours with DMSO or 2.5 μM of ZNL-0056. To harvest cells, plates were washed 3 times with cold PBS, then collected by scraping into 4 mL of cold PBS containing protease and phosphatase inhibitors. Cells were pelleted by centrifugation at 1350 g at 4 ℃ for 5 minutes and immediately frozen in liquid nitrogen. The frozen samples were sent to ActivX Biosciences (La Jolla, CA) for the remainder of the KiNativ profiling experiment4.
# (§5) Protein expression and purification
# (§6) Human EGFR kinase domain (residues 696-1022) with T790M and V948R mutations was cloned with an N-terminal, protease cleavable His -GST tag. Recombinant protein was expressed in SF9 insect cells using baculovirus generated from the pFastBac system (Thermo Fisher) .
# (§7) Briefly, cells at a density of ~2x10^6 cells/mL were infected with 1% (v/v) virus stock and grown for ~72 hours before harvesting and freezing the cell pellet . Infected cells were lysed in buffer A (50 mM Tris pH 8.0, 500 mM NaCl, 5% glycerol, 0.5 mM Tris(2-carboxyethyl)phosphine [TCEP]), ultracentrifuged at >200,000 rcf for 1 h, and the supernatant flo wed through Ni-NTA resin by gravity. The resin was washed with buffer A supplemented with 40 mM imidazole by […]
# [2] = tested on: T1, BARK1; conditions: 2.5 µM; Lys2; DLKPANILLDEHGHVR
# T1 construct: purchased ActivX Biosciences (KiNativ)
# Experimental: as §1, §2, §3, §4, §5, §6, §7
# [3] = tested on: T2, CDK5; conditions: 2.5 µM
# T2 construct: purchased ActivX Biosciences (KiNativ)
# Experimental: as §1, §2, §3, §4, §5, §6, §7
# [4] = tested on: T3, CHK2; conditions: 2.5 µM
# T3 construct: purchased ActivX Biosciences (KiNativ)
# Experimental: as §1, §2, §3, §4, §5, §6, §7
# [5] = tested on: T4, EGFR-L858R; conditions: 2.5 µM; Activation Loop; AKLLGAEEK
# T4 construct: purchased ActivX Biosciences (KiNativ)
# Experimental: as §1, §2, §3, §4, §5, §6, §7
# [6] = tested on: T5, FRK; conditions: 2.5 µM
# T5 construct: purchased ActivX Biosciences (KiNativ)
# Experimental: as §1, §2, §3, §4, §5, §6, §7
# [7] = tested on: T6, GCK; conditions: 2.5 µM
# T6 construct: purchased ActivX Biosciences (KiNativ)
# Experimental: as §1, §2, §3, §4, §5, §6, §7
# [8] = tested on: T7, GSK3A; conditions: 2.5 µM; Lys2; DIKPQNLLVDPDTAVLK
# T7 construct: purchased ActivX Biosciences (KiNativ)
# Experimental: as §1, §2, §3, §4, §5, §6, §7
# [9] = tested on: T8, HER2/ErbB2; conditions: 2.5 µM
# T8 construct: purchased ActivX Biosciences (KiNativ)
# Experimental: as §1, §2, §3, §4, §5, §6, §7
# [10] = tested on: T9, MAP3K4; conditions: 2.5 µM
# T9 construct: purchased ActivX Biosciences (KiNativ)
# Experimental: as §1, §2, §3, §4, §5, §6, §7
# [11] = tested on: T10, MAP3K5; conditions: 2.5 µM; Lys2; DIKGDNVLINTYSGVLK
# T10 construct: purchased ActivX Biosciences (KiNativ)
# Experimental: as §1, §2, §3, §4, §5, §6, §7
# [12] = tested on: T11, MAP3K6; conditions: 2.5 µM; Lys2; DIKGDNVLINTFSGLLK
# T11 construct: purchased ActivX Biosciences (KiNativ)
# Experimental: as §1, §2, §3, §4, §5, §6, §7
# [13] = tested on: MARK1, MARK2; conditions: 2.5 µM; Lys1; EVAVKIIDK
# Experimental: as §1, §2, §3, §4, §5, §6, §7
# [14] = tested on: T12, MAST3; conditions: 2.5 µM; Lys2; DLKPDNLLITSLGHIK
# T12 construct: purchased ActivX Biosciences (KiNativ)
# Experimental: as §1, §2, §3, §4, §5, §6, §7
# [15] = tested on: T13, MSK1 domain1; conditions: 2.5 µM; Lys2; DIKLENILLDSNGHVVLTDFGLSK
# T13 construct: MSK1 domain1; purchased ActivX Biosciences (KiNativ)
# Experimental: as §1, §2, §3, §4, §5, §6, §7
# [16] = tested on: MST1, MST2; conditions: 2.5 µM; Lys2; DIKAGNILLNTEGHAK
# Experimental: as §1, §2, §3, §4, §5, §6, §7
# [17] = tested on: T14, NDR2; conditions: 2.5 µM
# T14 construct: purchased ActivX Biosciences (KiNativ)
# Experimental: as §1, §2, §3, §4, §5, §6, §7
# [18] = tested on: T15, PCTAIRE2; conditions: 2.5 µM; Lys2; DLKPQNLLINEK
# T15 construct: purchased ActivX Biosciences (KiNativ)
# Experimental: as §1, §2, §3, §4, §5, §6, §7
# [19] = tested on: PKCa, PKCg; conditions: 2.5 µM; Other; NLIPMDPNGLSDPYVKLK
# Experimental: as §1, §2, §3, §4, §5, §6, §7
# [20] = tested on: T16, PKD3; conditions: 2.5 µM
# T16 construct: purchased ActivX Biosciences (KiNativ)
# Experimental: as §1, §2, §3, §4, §5, §6, §7
# [21] = tested on: T17, PKN2; conditions: 2.5 µM; Lys2; DLKLDNLLLDTEGFVK
# T17 construct: purchased ActivX Biosciences (KiNativ)
# Experimental: as §1, §2, §3, §4, §5, §6, §7
# [22] = tested on: T18, SYK; conditions: 2.5 µM
# T18 construct: purchased ActivX Biosciences (KiNativ)
# Experimental: as §1, §2, §3, §4, §5, §6, §7
# [23] = tested on: Wnk1, Wnk2; conditions: 2.5 µM; ATP Loop; GSFKTVYK
# Experimental: as §1, §2, §3, §4, §5, §6, §7
# [24] = Lys1, LGSGQFGEVWEGLWNNTTPVAVKTLKPGSMDPNDFLR
# [25] = Activation Loop, LLDIDETEYHADGGKVPIK
SMILES,"Inhibition ([1]; Lys1, VAVKILNR) [%]","Inhibition ([1]; Lys2, DLKPENVLLDAHMNAK) [%]",Inhibition [2] [%],"Inhibition ([3]; Lys1, NRETHEIVALKR) [%]","Inhibition ([3]; Lys2, DLKPQNLLINR) [%]","Inhibition ([4]; Lys1, VAIKIISK) [%]","Inhibition ([4]; Lys2, DLKPENVLLSSQEEDCLIK) [%]",Inhibition [5] [%],"Inhibition ([6]; Activation Loop, HEIKLPVK) [%]","Inhibition [6, 24] [%]","Inhibition ([7]; Lys1, DTVTSELAAVKIVK) [%]","Inhibition ([7]; Lys2, DIKGANLLLTLQGDVK) [%]",Inhibition [8] [%],"Inhibition [9, 25] [%]","Inhibition ([9]; Lys1, GIWIPDGENVKIPVAIKVLR) [%]","Inhibition ([10]; Lys1, VYTCISVDTGELMAMKEIR) [%]","Inhibition ([10]; Lys2, DIKGANIFLTSSGLIK) [%]",Inhibition [11] [%],Inhibition [12] [%],Inhibition [13] [%],also measured
C=CC(=O)Nc1cc(C(=O)Nc2nc3cccc(C)c3n2[C@@H]2CCCCN(C(=O)C=C)C2)cs1 [ZNL-0056],20.9,9.7,17.8,-65.5,18.0,23.8,13.8,97.2,-77.6,7.6,-6.8,0.9,11.5,65.9,60.7,16.4,-19.0,-61.4,20.5,11.4,"Inhibition [14]: 3.9%; Inhibition [15]: 10.0%; Inhibition [16]: 16.1%; Inhibition ([17]; Lys1, DTGHIYAMKILR): 11.0%; Inhibition ([17]; Lys2, DIKPDNLLLDAK): 3.3%; Inhibition [18]: -15.1%; Inhibition [19]: -17.5%; Inhibition ([20]; Lys1, DVAIKVIDK): -14.1%; Inhibition ([20]; Lys2, NIVHCDLKPENVLLASAEPFPQVK): 3.5%; Inhibition [21]: 22.0%; Inhibition ([22]; Activation Loop, ISDFGLSKALR): 4.4%; Inhibition ([22]; Lys1, TVAVKILK): 4.7%; Inhibition [23]: -0.1%"
"C=CC(=O)Nc1cc(Nc2nccc(-c3cn(C)c4ccccc34)n2)c(OC)cc1N(C)CCN(C)C [Osimertinib, osimertinib, reference compound]",6.4,-33.2,-15.7,-40.7,26.2,17.8,11.1,98.2,-27.9,12.8,-23.8,15.4,-5.2,82.4,89.1,0.9,-3.4,21.0,-16.3,-15.4,"Inhibition [14]: -21.8%; Inhibition [15]: -10.4%; Inhibition [16]: 17.9%; Inhibition ([17]; Lys1, DTGHIYAMKILR): -19.7%; Inhibition ([17]; Lys2, DIKPDNLLLDAK): -0.656%; Inhibition [18]: 2.6%; Inhibition [19]: -21.6%; Inhibition ([20]; Lys1, DVAIKVIDK): -11.4%; Inhibition ([20]; Lys2, NIVHCDLKPENVLLASAEPFPQVK): -11.6%; Inhibition [21]: 9.8%; Inhibition ([22]; Activation Loop, ISDFGLSKALR): -19.6%; Inhibition ([22]; Lys1, TVAVKILK): -0.9%; Inhibition [23]: -14.8%"
